In the supplement of paper PMC8671470:

Columns and labels:
Details in all cases: 72 h
HL-60 [1] = assay: cell viability (% survival relative to DMSO control); higher = less cytotoxic
Summary of the method: (§1)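 In 384-well plates, the full library was rescreened in duplicate on HL-60 cells in RPMI 1640 with 10% FBS, at 1–10,000 nM in five tenfold concentrations, for 72 h at 37 °C, 5% CO2. Each run also held DMSO or 100 nM of one of three metabolic inhibitors. Viability was measured by CellTiter-Glo and normalised to DMSO wells and to wells with proteasome inhibitor, present at 10 μM. Any area under the curve comes from four-parameter log-logistic fitting with drc and PharmacoGx.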

HL-60 [2] = assay: area under dose-response curve (viability, 1 nM-10 uM) (fraction (0-1)); higher = more sensitive
Summary of the method: as §1

KCL-22 [3] = tested on: KCL-22
Summary of the method: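 Each of fifteen myeloid leukaemia cell lines was seeded in RPMI 1640 at a density titrated to its linear growth range. The cells were incubated for 72 h at 37 °C and 5% CO2 with compounds at five tenfold doses from 1 to 10,000 nM, in duplicate. After ATP luminescence was normalised to vehicle and to a positive control at 10 µM, four-parameter log-logistic curves were fitted. These curves gave the IC50.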

KG-1 = assay: cell viability (% survival relative to DMSO control, bortezomib = 0%); higher = less cytotoxic
Summary of the method: (§2)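 Percent survival figures are means of duplicate wells. They were obtained by CellTiter-Glo luminescence after 10 AML and 5 CML cell lines spent 72 h at 37 °C with 5% CO2 in 384-well plates with compounds at 1, 10, 100, 1000 or 10000 nM. Vehicle was set to 100% and a 10 µM positive control to 0%.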

HL-60 [4] = assay: as above
Summary of the method: as §2

LAMA-84 = assay: as above
Summary of the method: as §2

KCL-22 [5] = assay: as above
Summary of the method: as §2

ML-2 = assay: as above
Summary of the method: as §2

K-562 = assay: as above
Summary of the method: as §2

HEL = assay: as above
Summary of the method: as §2

SHI-1 = assay: as above
Summary of the method: as §2

THP-1 = assay: as above
Summary of the method: as §2

MOLM-13 = assay: as above
Summary of the method: as §2

MV4-11 = assay: as above
Summary of the method: as §2

BV-173 = assay: as above
Summary of the method: as §2

NOMO-1 = assay: as above
Summary of the method: as §2

KU-812 = assay: as above
Summary of the method: as §2

Mono-Mac-6 = assay: as above
Summary of the method: as §2

CC(C)(CCCCCCCCCCC(C)(C)CC(=O)O)CC(=O)O [MEDICA 16]
cell viability [%], HL-60 [1]
Details | 0.001 µM | 0.01 µM | 0.1 µM | 1 µM | 10 µM
co-treatment: AZD3965 100 nM | 100 | 104 | 105 | 101 | 99.5
co-treatment: DMSO vehicle | 98.9 | 98.3 | 103 | 101 | 98
co-treatment: GSK2194069 100 nM | 101.1 | 87.2 | 99 | 102 | 93.201
co-treatment: pictilisib 100 nM | 97.8 | 100 | 93.9 | 90 | 99.96

Details | area under dose-response curve, co-treatment: AZD3965 100 nM | area under dose-response curve, co-treatment: DMSO vehicle | area under dose-response curve, co-treatment: GSK2194069 100 nM | area under dose-response curve, co-treatment: pictilisib 100 nM | cell viability, 1 nM [%] | cell viability, 10 nM [%] | cell viability, 100 nM [%] | cell viability, 1000 nM [%] | cell viability, 10000 nM [%]
BV-173 | – | – | – | – | 105 | 89.4 | 98.5 | 94.2 | 106
HEL | – | – | – | – | 116 | 108 | 95.2 | 110 | 119
HL-60 [2] | < 0.0301 | < 0.0301 | < 0.0301 | < 0.0301 | – | – | – | – | –
HL-60 [4] | – | – | – | – | 109 | 114 | 98 | 116 | 108
K-562 | – | – | – | – | 114 | 108 | 103 | 96.8 | 117
KCL-22 [5] | – | – | – | – | 119 | 97.4 | 107 | 107 | 98.7
KG-1 | – | – | – | – | 91.7 | 95.8 | 98.6 | 107 | 99.8
KU-812 | – | – | – | – | 106 | 94.2 | 101 | 106 | 97.8
LAMA-84 | – | – | – | – | 110 | 85.8 | 99.3 | 98.6 | 97.8
ML-2 | – | – | – | – | 104 | 99.4 | 96.3 | 101 | 91.5
MOLM-13 | – | – | – | – | 113 | 97.1 | 107 | 79.4 | 96.7
MV4-11 | – | – | – | – | 124 | 105 | 94 | 102 | 116
Mono-Mac-6 | – | – | – | – | 99.8 | 114 | 102 | 102 | 111
NOMO-1 | – | – | – | – | 100 | 95.3 | 101 | 101 | 103
SHI-1 | – | – | – | – | 121 | 104 | 102 | 98.2 | 90.7
THP-1 | – | – | – | – | 103 | 94.8 | 97.2 | 96.5 | 99.3

Details | IC50 (cell viability) [µM]
KCL-22 [3] | > 10

Cn1c2cc(S(C)=O)sc2c2cnn(Cc3cccc(N)c3)c(=O)c21 (stereo not given) [TEPP-46]
cell viability [%], HL-60 [1]
Details | 0.001 µM | 0.01 µM | 0.1 µM | 1 µM | 10 µM
co-treatment: AZD3965 100 nM | 98.7 | 108 | 113 | 102 | 100
co-treatment: DMSO vehicle | 99.6 | 103 | 104 | 104 | 107
co-treatment: GSK2194069 100 nM | 97.7 | 106 | 97.1 | 104 | 101
co-treatment: pictilisib 100 nM | 87.3 | 106 | 112 | 98.02 | 95.3

Details | area under dose-response curve, co-treatment: AZD3965 100 nM | area under dose-response curve, co-treatment: DMSO vehicle | area under dose-response curve, co-treatment: GSK2194069 100 nM | area under dose-response curve, co-treatment: pictilisib 100 nM | cell viability, 1 nM [%] | cell viability, 10 nM [%] | cell viability, 100 nM [%] | cell viability, 1000 nM [%] | cell viability, 10000 nM [%]
BV-173 | – | – | – | – | 108 | 84.1 | 102 | 106 | 76.8
HEL | – | – | – | – | 118 | 96.2 | 100 | 99.1 | 84
HL-60 [2] | < 0.0301 | < 0.0301 | < 0.0301 | < 0.0301 | – | – | – | – | –
HL-60 [4] | – | – | – | – | 104 | 81.9 | 98.8 | 113 | 105
K-562 | – | – | – | – | 112 | 92.1 | 101 | 111 | 81.8
KCL-22 [5] | – | – | – | – | 109 | 96.8 | 97.2 | 111 | 87.8
KG-1 | – | – | – | – | 116 | 99.9 | 102 | 93.5 | 85.1
KU-812 | – | – | – | – | 94.7 | 102 | 98.5 | 107 | 74.4
LAMA-84 | – | – | – | – | 106 | 98.2 | 98.2 | 97.4 | 90.6
ML-2 | – | – | – | – | 116 | 98.9 | 102 | 108 | 91.7
MOLM-13 | – | – | – | – | 136 | 92.9 | 91.9 | 123 | 94.3
MV4-11 | – | – | – | – | 105 | 100 | 94.1 | 103 | 69.3
Mono-Mac-6 | – | – | – | – | 102 | 106 | 103 | 102 | 83
NOMO-1 | – | – | – | – | 104 | 92.6 | 102 | 99.8 | 93.3
SHI-1 | – | – | – | – | 125 | 101 | 105 | 96.5 | 95.3
THP-1 | – | – | – | – | 101 | 100 | 97.5 | 104 | 99.7

Details | IC50 (cell viability) [µM]
KCL-22 [3] | > 10
